# Reference: ChEMBL document CHEMBL5523738, “Lipid Trolling to Optimize A3 Adenosine Receptor-Positive Allosteric Modulators (PAMs)” (J Med Chem, 2024)
# Active and inactive are the calls of the source. No cut-off for these calls is given here.
# Tests used:
# [1] = target: GABA-A receptor; anion channel (Homo sapiens) (UniProt P14867+P47870+P18507+P28472+P48169+Q99928+Q9UN88+P34903+O00591+O14764+Q8N1C3+P18505+P78334+P47869+P31644+Q16445); assay: Binding affinity to GABA-A receptor (unknown origin); format: protein-complex assay
# [2] = target: D(1A) dopamine receptor (Homo sapiens) (UniProt P21728); assay: Binding affinity to D1 receptor (unknown origin)
# Chain of D(1A) dopamine receptor (Homo sapiens) (P21728 whole entry): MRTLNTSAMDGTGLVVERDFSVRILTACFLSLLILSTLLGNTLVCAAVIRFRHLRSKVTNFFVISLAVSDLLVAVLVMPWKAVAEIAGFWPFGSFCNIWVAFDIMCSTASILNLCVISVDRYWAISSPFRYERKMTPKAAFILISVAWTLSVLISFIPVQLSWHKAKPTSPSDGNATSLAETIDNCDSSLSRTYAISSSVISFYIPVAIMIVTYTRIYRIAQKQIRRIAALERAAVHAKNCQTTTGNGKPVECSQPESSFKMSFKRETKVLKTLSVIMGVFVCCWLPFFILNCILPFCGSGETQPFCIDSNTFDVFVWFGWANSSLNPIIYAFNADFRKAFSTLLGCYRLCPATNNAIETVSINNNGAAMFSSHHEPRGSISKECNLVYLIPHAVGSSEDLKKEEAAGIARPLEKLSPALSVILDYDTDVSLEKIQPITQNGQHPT
# [3] = target: T1, Adenosine receptor A3 (Mus musculus) (UniProt Q61618); assay: Positive allosteric modulation of full length mouse A3 adenosine receptor transfected in HEK293 cell membranes assessed as reduction in [125I]I-AB-MECA dissociation rate at 1 to 10 uM preincubated with radioligand for 3 hrs followed by NECA and compound addition and measured upto 180 mins by gamma counter method; settings: Membrane, filed as positive allosteric modulator, dose 1-10 µM
# T1 sequence (whole entry): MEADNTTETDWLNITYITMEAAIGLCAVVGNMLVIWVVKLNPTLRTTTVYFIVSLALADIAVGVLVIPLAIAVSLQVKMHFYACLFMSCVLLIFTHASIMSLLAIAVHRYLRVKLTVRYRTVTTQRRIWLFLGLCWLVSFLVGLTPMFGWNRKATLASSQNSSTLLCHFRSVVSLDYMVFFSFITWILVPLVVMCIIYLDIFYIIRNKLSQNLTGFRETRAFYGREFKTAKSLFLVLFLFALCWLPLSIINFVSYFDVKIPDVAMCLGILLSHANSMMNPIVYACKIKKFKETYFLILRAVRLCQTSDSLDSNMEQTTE
# [4] = target: T2, Adenosine receptor A3 (Homo sapiens) (UniProt P0DMS8); assay: Positive allosteric modulation of human A3 adenosine receptor transfected in HEK293 cell membranes assessed as potentiation of MRS5698 induced inhibition of cAMP formation by measuring fold increase in agonist potency at 3 uM relative to control; format: functional; settings: Membrane, filed as positive allosteric modulator
# T2 sequence (whole entry): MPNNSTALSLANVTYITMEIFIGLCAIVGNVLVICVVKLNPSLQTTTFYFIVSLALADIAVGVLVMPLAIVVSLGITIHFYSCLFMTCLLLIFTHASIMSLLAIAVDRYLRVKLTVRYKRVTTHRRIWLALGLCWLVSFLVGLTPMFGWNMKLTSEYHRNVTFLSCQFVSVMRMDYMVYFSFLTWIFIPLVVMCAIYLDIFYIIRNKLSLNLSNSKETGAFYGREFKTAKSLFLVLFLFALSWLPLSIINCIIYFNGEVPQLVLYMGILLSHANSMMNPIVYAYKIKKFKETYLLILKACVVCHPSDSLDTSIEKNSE
# [5] = target: 5-hydroxytryptamine receptor 1E (Homo sapiens) (UniProt P28566); assay: Binding affinity to 5-HT1E (unknown origin)
# [6] = target: Alpha-1A adrenergic receptor (Homo sapiens) (UniProt P35348); assay: Binding affinity to alpha1A adrenergic receptor (unknown origin)
# Chain of Alpha-1A adrenergic receptor (Homo sapiens) (P35348 whole entry): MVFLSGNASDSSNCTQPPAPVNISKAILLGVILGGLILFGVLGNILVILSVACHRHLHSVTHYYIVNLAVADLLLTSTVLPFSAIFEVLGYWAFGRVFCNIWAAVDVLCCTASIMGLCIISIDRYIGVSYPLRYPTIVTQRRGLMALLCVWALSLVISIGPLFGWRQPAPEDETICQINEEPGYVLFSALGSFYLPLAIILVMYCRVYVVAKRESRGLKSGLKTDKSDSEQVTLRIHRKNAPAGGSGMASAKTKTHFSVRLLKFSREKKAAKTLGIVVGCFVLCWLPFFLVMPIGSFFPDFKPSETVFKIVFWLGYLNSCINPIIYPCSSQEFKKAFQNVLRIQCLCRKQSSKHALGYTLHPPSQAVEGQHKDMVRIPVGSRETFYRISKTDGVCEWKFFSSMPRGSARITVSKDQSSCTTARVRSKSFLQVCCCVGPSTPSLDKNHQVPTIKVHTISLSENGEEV
# [7] = target: T1, Adenosine receptor A3 (Mus musculus); assay: Orthosteric antagonist activity at full length mouse A3 adenosine receptor transfected in HEK293 cell membranes assessed as inhibition of [125I]I-AB-MECA binding at equilibrium at 10 uM by gamma counter method; settings: Membrane, filed as antagonist
# [8] = target: D(2) dopamine receptor (Homo sapiens) (UniProt P14416); assay: Binding affinity to D2 receptor (unknown origin)
# Chain of D(2) dopamine receptor (Homo sapiens) (P14416 whole entry): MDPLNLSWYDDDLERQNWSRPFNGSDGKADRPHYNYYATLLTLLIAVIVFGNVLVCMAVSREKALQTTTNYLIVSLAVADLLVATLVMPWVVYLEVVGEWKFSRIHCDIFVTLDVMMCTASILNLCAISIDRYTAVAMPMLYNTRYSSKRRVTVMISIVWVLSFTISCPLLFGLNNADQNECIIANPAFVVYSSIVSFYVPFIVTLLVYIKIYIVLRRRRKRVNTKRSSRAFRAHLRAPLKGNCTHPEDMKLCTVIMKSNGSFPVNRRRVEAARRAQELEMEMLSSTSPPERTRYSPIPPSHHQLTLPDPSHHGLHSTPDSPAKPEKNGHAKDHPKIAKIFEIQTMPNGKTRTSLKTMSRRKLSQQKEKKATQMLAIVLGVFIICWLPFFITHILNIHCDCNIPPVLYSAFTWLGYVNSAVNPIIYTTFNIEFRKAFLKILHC
# [9] = target: T2, Adenosine receptor A3 (Homo sapiens); assay: Positive allosteric modulation of human A3 adenosine receptor transfected in HEK293 cell membranes assessed as potentiation of 5-(2-chloro-6-((3-iodobenzyl)amino)-9H-purin-9-yl)-3,4-dihydroxy-N-methyltetrahydrofuran-2-carboxamide induced [35S]GTP-gammaS binding by measuring maximal efficacy of agonist at 0.01 uM pretreated for 1 hr followed by agonist addition and measured after 2 hrs by liquid scintillation counting method (reference value: 100 +/- 3%); settings: Membrane, filed as positive allosteric modulator, time 3.0 hrs
# [10] = target: Muscarinic acetylcholine receptor M4 (Homo sapiens) (UniProt P08173); assay: Binding affinity to M4 receptor (unknown origin)
# Chain of Muscarinic acetylcholine receptor M4 (Homo sapiens) (P08173 whole entry): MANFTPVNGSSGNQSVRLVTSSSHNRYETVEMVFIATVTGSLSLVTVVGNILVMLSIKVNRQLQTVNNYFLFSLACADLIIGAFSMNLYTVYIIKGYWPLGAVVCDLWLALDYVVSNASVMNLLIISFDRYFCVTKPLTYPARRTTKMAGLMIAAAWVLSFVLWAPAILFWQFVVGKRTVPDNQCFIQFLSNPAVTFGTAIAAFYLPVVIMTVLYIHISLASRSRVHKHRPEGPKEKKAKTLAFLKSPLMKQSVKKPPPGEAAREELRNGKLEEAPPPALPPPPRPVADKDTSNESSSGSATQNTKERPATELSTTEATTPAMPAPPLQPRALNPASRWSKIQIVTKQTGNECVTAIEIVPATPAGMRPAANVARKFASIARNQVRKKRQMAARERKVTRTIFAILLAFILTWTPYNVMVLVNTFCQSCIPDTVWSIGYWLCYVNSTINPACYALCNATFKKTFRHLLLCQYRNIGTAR
# Homo sapiens = species on record: Homo sapiens; assay: Binding affinity to BZP receptor (unknown origin)
# [11] = target: T2, Adenosine receptor A3 (Homo sapiens); assay: Positive allosteric modulation of human A3 adenosine receptor transfected in HEK293 cell membranes assessed as potentiation of 5-(2-chloro-6-((3-iodobenzyl)amino)-9H-purin-9-yl)-3,4-dihydroxy-N-methyltetrahydrofuran-2-carboxamide induced [35S]GTP-gammaS binding by measuring maximal efficacy of agonist at 0.001 uM pretreated for 1 hr followed by agonist addition and measured after 2 hrs by liquid scintillation counting method (reference value: 100 +/- 3%); settings: Membrane, filed as positive allosteric modulator, time 3.0 hrs
# [12] = target: Beta-2 adrenergic receptor (Homo sapiens) (UniProt P07550); assay: Binding affinity to beta2 adrenergic receptor (unknown origin)
# Chain of Beta-2 adrenergic receptor (Homo sapiens) (P07550 whole entry, looked up): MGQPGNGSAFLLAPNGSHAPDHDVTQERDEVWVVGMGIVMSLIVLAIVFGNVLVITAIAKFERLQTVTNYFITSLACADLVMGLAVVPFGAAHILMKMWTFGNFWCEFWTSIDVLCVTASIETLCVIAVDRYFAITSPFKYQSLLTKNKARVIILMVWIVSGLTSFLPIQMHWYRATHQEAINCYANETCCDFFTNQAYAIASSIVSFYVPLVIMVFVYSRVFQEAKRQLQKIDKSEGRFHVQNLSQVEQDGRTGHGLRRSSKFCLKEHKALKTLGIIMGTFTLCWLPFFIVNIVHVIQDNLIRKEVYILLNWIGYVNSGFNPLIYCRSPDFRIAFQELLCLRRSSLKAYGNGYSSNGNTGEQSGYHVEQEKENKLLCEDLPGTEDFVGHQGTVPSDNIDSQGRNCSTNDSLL
# [13] = target: 5-hydroxytryptamine receptor 3A (Homo sapiens) (UniProt P46098); assay: Binding affinity to 5-HT3 (unknown origin)
# [14] = target: T2, Adenosine receptor A3 (Homo sapiens); assay: Positive allosteric modulation of human A3 adenosine receptor transfected in HEK293 cell membranes assessed as potentiation of NECA induced ERK activation at 3 uM; settings: Membrane
# [15] = target: Delta-type opioid receptor (Homo sapiens) (UniProt P41143); assay: Binding affinity to DOR (unknown origin)
# Chain of Delta-type opioid receptor (Homo sapiens) (P41143 whole entry): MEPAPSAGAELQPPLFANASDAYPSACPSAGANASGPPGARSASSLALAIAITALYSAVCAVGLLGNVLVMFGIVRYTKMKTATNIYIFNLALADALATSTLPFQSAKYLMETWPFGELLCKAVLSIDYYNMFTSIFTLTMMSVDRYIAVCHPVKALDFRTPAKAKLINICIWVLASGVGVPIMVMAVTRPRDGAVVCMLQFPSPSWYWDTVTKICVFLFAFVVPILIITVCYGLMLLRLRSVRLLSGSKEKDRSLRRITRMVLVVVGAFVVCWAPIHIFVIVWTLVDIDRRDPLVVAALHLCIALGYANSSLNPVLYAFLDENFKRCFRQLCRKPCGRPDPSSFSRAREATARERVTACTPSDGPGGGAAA
# [16] = target: 5-hydroxytryptamine receptor 5A (Homo sapiens) (UniProt P47898); assay: Binding affinity to 5-HT5A (unknown origin)
# Chain of 5-hydroxytryptamine receptor 5A (Homo sapiens) (P47898 whole entry): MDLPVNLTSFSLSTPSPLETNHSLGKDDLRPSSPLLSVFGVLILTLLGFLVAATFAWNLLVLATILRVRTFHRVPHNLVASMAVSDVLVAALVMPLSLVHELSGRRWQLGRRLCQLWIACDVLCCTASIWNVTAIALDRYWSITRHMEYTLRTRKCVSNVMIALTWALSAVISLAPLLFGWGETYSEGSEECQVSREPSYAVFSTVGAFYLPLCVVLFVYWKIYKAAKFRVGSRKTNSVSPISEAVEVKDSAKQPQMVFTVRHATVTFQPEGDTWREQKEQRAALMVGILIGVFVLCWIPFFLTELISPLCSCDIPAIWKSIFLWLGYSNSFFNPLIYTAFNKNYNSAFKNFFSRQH
# [17] = target: T2, Adenosine receptor A3 (Homo sapiens); assay: Positive allosteric modulation of human A3 adenosine receptor transfected in HEK293 cell membranes assessed as potentiation of 5-(2-chloro-6-((3-iodobenzyl)amino)-9H-purin-9-yl)-3,4-dihydroxy-N-methyltetrahydrofuran-2-carboxamide induced [35S]GTP-gammaS binding by measuring fold increase in agonist …; settings: Membrane, filed as positive allosteric modulator, dose 1.0 µM, time 3.0 hrs
# [18] = target: Kappa-type opioid receptor (Homo sapiens) (UniProt P41145); assay: Binding affinity to KOR (unknown origin)
# Chain of Kappa-type opioid receptor (Homo sapiens) (P41145 whole entry): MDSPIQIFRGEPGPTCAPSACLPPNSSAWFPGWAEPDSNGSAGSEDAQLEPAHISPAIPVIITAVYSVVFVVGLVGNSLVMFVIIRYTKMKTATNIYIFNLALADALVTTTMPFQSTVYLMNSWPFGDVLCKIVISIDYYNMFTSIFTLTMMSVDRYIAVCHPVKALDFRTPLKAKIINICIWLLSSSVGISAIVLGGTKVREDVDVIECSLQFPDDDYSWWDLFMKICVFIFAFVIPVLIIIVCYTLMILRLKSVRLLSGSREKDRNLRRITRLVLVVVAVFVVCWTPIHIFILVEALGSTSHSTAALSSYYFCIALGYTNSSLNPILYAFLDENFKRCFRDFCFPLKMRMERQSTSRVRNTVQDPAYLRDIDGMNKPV
# [19] = target: T2, Adenosine receptor A3 (Homo sapiens); assay: Positive allosteric modulation of human A3 adenosine receptor transfected in HEK293 cell membranes assessed as slow down of [125I]I-AB-MECA dissociation rate at 10 uM preincubated with radioligand for 3 hrs followed by NECA and compound addition and measured after 60 mins by gamma counter method; settings: Membrane, filed as positive allosteric modulator
# [20] = target: Histamine H2 receptor (Homo sapiens) (UniProt P25021); assay: Binding affinity to histamine H2 receptor (unknown origin)
# Chain of Histamine H2 receptor (Homo sapiens) (P25021 whole entry): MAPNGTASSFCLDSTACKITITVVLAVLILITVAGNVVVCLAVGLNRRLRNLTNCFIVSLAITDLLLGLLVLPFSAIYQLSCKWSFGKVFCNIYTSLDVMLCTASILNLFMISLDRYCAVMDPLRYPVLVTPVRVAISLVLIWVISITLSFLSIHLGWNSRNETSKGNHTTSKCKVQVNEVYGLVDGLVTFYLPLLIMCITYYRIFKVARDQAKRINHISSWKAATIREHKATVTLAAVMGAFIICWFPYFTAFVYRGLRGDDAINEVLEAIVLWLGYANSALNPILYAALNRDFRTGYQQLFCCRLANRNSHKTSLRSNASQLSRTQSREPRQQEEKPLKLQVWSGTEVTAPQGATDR
# [21] = target: T2, Adenosine receptor A3 (Homo sapiens); assay: Positive allosteric modulation of human A3 adenosine receptor transfected in HEK293 cell membranes assessed as potentiation of MRS5698 induced inhibition of cAMP formation by measuring maximal efficacy of agonist at 3 uM (reference value: 100%); format: functional; settings: Membrane, filed as positive allosteric modulator
# [22] = target: Muscarinic acetylcholine receptor M1 (Homo sapiens) (UniProt P11229); assay: Binding affinity to M1 receptor (unknown origin)
# Chain of Muscarinic acetylcholine receptor M1 (Homo sapiens) (P11229 whole entry): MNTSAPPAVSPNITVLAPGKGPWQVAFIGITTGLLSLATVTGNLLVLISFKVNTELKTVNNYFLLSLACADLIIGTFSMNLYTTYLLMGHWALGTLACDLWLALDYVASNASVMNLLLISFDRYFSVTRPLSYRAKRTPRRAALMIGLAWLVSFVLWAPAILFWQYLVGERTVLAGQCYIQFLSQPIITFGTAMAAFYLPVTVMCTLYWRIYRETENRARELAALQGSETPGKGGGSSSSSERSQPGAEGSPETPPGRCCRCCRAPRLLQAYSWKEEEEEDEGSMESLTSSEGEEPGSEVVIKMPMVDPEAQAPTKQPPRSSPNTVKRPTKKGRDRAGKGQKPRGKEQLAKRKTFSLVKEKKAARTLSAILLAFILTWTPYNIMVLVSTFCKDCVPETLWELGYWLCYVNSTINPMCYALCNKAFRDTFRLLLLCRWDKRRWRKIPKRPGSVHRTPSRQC
# [23] = target: Mu-type opioid receptor (Homo sapiens) (UniProt P35372); assay: Binding affinity to MOR (unknown origin)
# Chain of Mu-type opioid receptor (Homo sapiens) (P35372 whole entry): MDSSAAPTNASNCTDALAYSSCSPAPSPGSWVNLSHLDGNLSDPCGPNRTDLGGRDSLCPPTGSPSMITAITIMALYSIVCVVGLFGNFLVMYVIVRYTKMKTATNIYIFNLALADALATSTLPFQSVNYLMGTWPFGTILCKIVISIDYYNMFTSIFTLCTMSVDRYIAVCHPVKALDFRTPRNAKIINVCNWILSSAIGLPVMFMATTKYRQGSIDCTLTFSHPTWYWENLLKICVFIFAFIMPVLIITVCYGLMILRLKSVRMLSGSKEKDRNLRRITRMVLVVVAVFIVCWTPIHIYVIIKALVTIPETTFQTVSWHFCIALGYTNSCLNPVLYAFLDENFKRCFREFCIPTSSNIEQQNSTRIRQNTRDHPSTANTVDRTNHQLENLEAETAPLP
# [24] = target: T2, Adenosine receptor A3 (Homo sapiens); assay: Positive allosteric modulation of human A3 adenosine receptor transfected in HEK293 cell membranes assessed as potentiation of MRS5698 induced ERK activation at 3 uM; settings: Membrane
# [25] = target: Adenosine receptor A1 (Homo sapiens) (UniProt P30542); assay: Positive allosteric modulation of human A1 adenosine receptor transfected in HEK293 cells assessed as potentiation of […] induced inhibition of cAMP formation at 3 uM; format: functional, cell-based
# Chain of Adenosine receptor A1 (Homo sapiens) (P30542 whole entry): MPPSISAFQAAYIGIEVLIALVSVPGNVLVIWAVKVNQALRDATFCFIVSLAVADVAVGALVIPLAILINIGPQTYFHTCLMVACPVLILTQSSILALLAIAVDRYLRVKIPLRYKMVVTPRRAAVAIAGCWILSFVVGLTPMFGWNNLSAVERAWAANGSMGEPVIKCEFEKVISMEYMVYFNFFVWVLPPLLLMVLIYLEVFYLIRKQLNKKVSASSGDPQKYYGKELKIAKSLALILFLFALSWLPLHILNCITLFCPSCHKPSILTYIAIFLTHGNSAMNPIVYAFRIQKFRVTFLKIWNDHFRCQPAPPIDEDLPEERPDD
# [26] = target: Muscarinic acetylcholine receptor M2 (Homo sapiens) (UniProt P08172); assay: Binding affinity to M2 receptor (unknown origin)
# [27] = target: Beta-3 adrenergic receptor (Homo sapiens) (UniProt P13945); assay: Binding affinity to beta3 adrenergic receptor (unknown origin)
# [28] = target: Alpha-1D adrenergic receptor (Homo sapiens) (UniProt P25100); assay: Binding affinity to alpha1D adrenergic receptor (unknown origin)
# [29] = target: T1, Adenosine receptor A3 (Mus musculus); assay: Positive allosteric modulation of full length mouse A3 adenosine receptor transfected in HEK293 cell membranes assessed as reduction in [125I]I-AB-MECA dissociation rate at 0.1 uM preincubated with radioligand for 3 hrs followed by NECA and compound addition and measured upto 180 mins by gamma counter method; settings: Membrane
smiles,measurement,setting,value
CCCC(CCC)c1nc2c(Nc3ccc(C#CCCCCCCCCN)cc3)nc3ccccc3c2[nH]1,Activity,[1],inactive
same,Activity,[2],inactive
same,Activity,[3],Active
same,fold change (FC),[4],9
same,Activity,[5],inactive
same,Activity,[6],inactive
same,Activity,[7],Active
same,Activity,[8],inactive
same,Emax,[9],157%
same,Activity,[10],inactive
same,Activity,Homo sapiens,inactive
same,Emax,[11],112%
same,Activity,[12],inactive
same,Activity,[13],inactive
same,Activity,[14],inactive
same,Activity,[15],inactive
same,Activity,[16],inactive
same,fold change (FC),[17],4
same,Activity,[18],inactive
same,Activity,[19],Active
same,Activity,[20],inactive
same,Emax,[21],117%
same,Activity,[22],inactive
same,Activity,[23],inactive
same,Activity,[24],inactive
same,Activity,[25],inactive
same,Activity,[26],inactive
same,Activity,[27],inactive
same,Activity,[28],inactive
same,Activity,[29],inactive
